This note sets out measurements from ChEMBL document CHEMBL1135334, “Design, synthesis and biological evaluation of cyclic angiotensin II analogues with 3,5 side-chain bridges. Role of C-terminal aromatic residue and ring cluster for activity and implications in the drug design of AT1 non-peptide antagonists” (2002).

The structures appear in SMILES notation. Bridge positions count the residues as written; N and C are the ends. Square brackets hold non-standard residues; d marks the D form. Peptide text beside a SMILES is read from it. Sar = CNCC(=O)O

Holding throughout (type): functional
For test [1], the species on record is Oryctolagus cuniculus. The experiment in a line: Compound was tested for dose-related reduction of the mean blood pressure on boluses of different dose of 2 mg via ear vein; value ranges from 0 to -20.
For test [2], the species on record is Oryctolagus cuniculus. The experiment in a line: Compound was tested for dose-related reduction of the mean blood pressure on boluses of different dose of 1 mg via ear vein; value ranges from 0 to -20.
The test system of test [3] is Oryctolagus cuniculus. The experiment in a line: Compound was tested for dose-dependent hypertensive response in infused anesthetized rabbits at 20 ug/min.
In test [4] the test system is Oryctolagus cuniculus. The test is described as follows: Compound was tested for dose-dependent hypertensive response in infused anesthetized rabbits at 30 ug/min.
Test [5] deals with Oryctolagus cuniculus. The experiment in a line: Compound was tested for dose-dependent hypertensive response in infused anesthetized rabbits at 10 ug/min.
For test [6], the species on record is Oryctolagus cuniculus. The experiment in a line: Compound was tested for dose-related reduction of the mean blood pressure on boluses of different dose of 300 mg via ear vein.
The species named for test [7] is Oryctolagus cuniculus. The test is described as follows: Compound was tested for dose-related reduction of the mean blood pressure on boluses of different dose of 150 mg via ear vein.
The species entered for test [8] is Oryctolagus cuniculus. The experiment in a line: Compound was tested for dose-related reduction of the mean blood pressure on boluses of different dose of 75 mg via ear vein.
For test [9], the system named is Oryctolagus cuniculus. The experiment in a line: Compound was tested for dose-dependent hypertensive response in infused anesthetized rabbits at 1 ug/min.
Test [10] concerns Oryctolagus cuniculus. The test is described as follows: Compound was tested for dose-dependent hypertensive response in infused anesthetized rabbits at 3 ug/min.
The test system of test [11] is Oryctolagus cuniculus. The test is described as follows: Compound was tested for dose-dependent hypertensive response in infused anesthetized rabbits at 2 ug/min.
The species entered for test [12] is Oryctolagus cuniculus. The experiment in a line: Compound was tested for dose-related reduction of the mean blood pressure on boluses of different dose of 0.05 mg via ear vein; value ranges from -20 to -40.
Test [13] is filed under the species Oryctolagus cuniculus. The test is described as follows: Compound was tested for dose-related reduction of the mean blood pressure on boluses of different dose of 0.1 mg via ear vein.
The species entered for test [14] is Oryctolagus cuniculus. The experiment in a line: Compound was tested for dose-related reduction of the mean blood pressure on boluses of different dose of 0.2 mg via ear vein; value ranges from -40 to -60.

In the case of `OCc1nc2ccccc2n1Cc1ccc(-c2ccccc2C2=NC(Cc3ccccc3)N=N2)cc1` (centres undefined), the “Delta mean blood pressure” value in the test listed under Oryctolagus cuniculus [1] and in the test filed under Oryctolagus cuniculus [2] was 0 each time.
`CNCC(=O)N[C@@H](CCCN=C(N)N)C(=O)N[C@H]1CCC(=O)NCCCC[C@@H](C(=O)N[C@@H](Cc2c[nH]cn2)C(=O)N2CCC[C@H]2C(=O)N[C@@H](Cc2ccccc2)C(=O)O)NC(=O)[C@H](Cc2ccc(O)cc2)NC1=O` (H-[Sar]REYKHPF-OH; lactam 3-5): the figures for the Response in the test on Oryctolagus cuniculus [3], in the test with Oryctolagus cuniculus [4] and in the test with Oryctolagus cuniculus [5] were 40%, 60% and 0%, respectively.
With `CC[C@H](C)[C@H](NC(=O)[C@@H]1CCCN1C(=O)[C@H](Cc1c[nH]cn1)NC(=O)[C@@H]1CCCCNC(=O)CC[C@H](NC(=O)[C@H](CCCN=C(N)N)NC(=O)CNC)C(=O)N[C@@H](Cc2ccc(O)cc2)C(=O)N1)C(=O)O` (H-[Sar]REYKHPI-OH; lactam 3-5), the “Delta mean blood pressure” value in the test filed under Oryctolagus cuniculus [6] is reported as -20; in the test filed under Oryctolagus cuniculus [7], 0; in the test listed under Oryctolagus cuniculus [8] it was 0.
As to `CC[C@H](C)[C@H](NC(=O)[C@H](Cc1ccc(O)cc1)NC(=O)[C@@H](NC(=O)[C@H](CCCNC(=N)N)NC(=O)[C@@H](N)CC(=O)O)C(C)C)C(=O)N[C@@H](Cc1cnc[nH]1)C(=O)N1CCC[C@H]1C(=O)N[C@@H](Cc1ccccc1)C(=O)O` [ANGIOTENSIN II], the Response with Oryctolagus cuniculus [9] was found to be 20%; in the test with Oryctolagus cuniculus [10] it was 40%; in the test with Oryctolagus cuniculus [11], 20%.
With `CCCCc1nc(Cl)c(CO)n1Cc1ccc(-c2ccccc2-c2nnn[nH]2)cc1` [LOSARTAN], the “Delta mean blood pressure” value is listed as -20 in the test listed under Oryctolagus cuniculus [12], -40 in the test filed under Oryctolagus cuniculus [13] and -40 in the test listed under Oryctolagus cuniculus [14].
